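Each compound was tested at five concentrations against cells in 96-well plates for 48 hours. GI50 marks 50% less growth.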 Active and inactive are the calls of the source. No stated cut-off is given here; in the data, active = GI50 up to about 1.1 µM and inactive = higher.

Assay in all cases: DTP human tumour cell line panel, 48 h
Test [1] relates to DMS-114.
Test [2] relates to DLD-1.
The test system of test [3] is M19-MEL.
Test [4] deals with SNB-78.
Test [5] relates to KM-20L2.
For test [6], the system named is DMS-273.
The subject of test [7] is RXF 631.
For test [8], the system named is HOP-18.
For test [9], the system named is XF498.

For `C=C(Br)N(CC)CC`, the GI50 in test [1], in test [2], in [3], in test [4], in test [5] and in test [6] was > 100 µM (inactive) each time. Moreover, the GI50 in test [7] and in test [8] was > 100 µM (inactive) throughout.
On to `CN(C)C(=S)N=C(Nc1ccccc1)Nc1ccccc1`, for which the GI50 in test [1], in test [3], in test [4], in test [5] and in [6] was > 100 µM (inactive) in each case.
Consider `C#CCN(Cc1ccc2nc(-c3ccccc3)c(Cl)nc2c1)c1ccc(Cl)c(Cl)c1`, for which the GI50 (as a rule, the concentration that inhibits growth by half) is > 100 µM (inactive) in test [1]; > 100 µM (inactive) in test [2]; > 100 µM (inactive) in test [3]; 38.1 µM (inactive) in test [4]; > 100 µM (inactive) in test [9]; > 100 µM (inactive) in test [5]. Besides, the GI50 in [6] and in test [8] was > 100 µM (inactive) throughout.
On to `CC(=O)N1C/C(=C\c2ccccc2)C(=O)/C(=C/c2ccccc2)C1`, for which the GI50 was 8.71 µM (inactive) in test [2]; 3.34 µM (inactive) in test [3]; 17.2 µM (inactive) in test [4]; 23.8 µM (inactive) in [9]; 15.6 µM (inactive) in [5]; 4.85 µM (inactive) in test [6]. In addition, the GI50 in test [8] was 18.8 µM (inactive).
With `CC(C)(Oc1ccc2c(=O)cc(-c3ccc(Cl)cc3)oc2c1)C(=O)Nc1c(Cl)cccc1Cl`, the GI50 in test [1], in test [2], in test [3], in [4], in [9] and in [5] was > 100 µM (inactive) in each case. In addition, the GI50 in test [6] and in test [8] was > 100 µM (inactive) in each case.
On to `Cc1c2cc[n+](C)cc2c(C)c2c1[nH]c1ccc(Cl)cc12`, for which the GI50 is 0.341 µM (active) in test [1]; 1.05 µM (active) in test [2]; 0.993 µM (active) in test [3]; 0.288 µM (active) in [4]; 2.58 µM (inactive) in [5]; 1.76 µM (inactive) in [6]. In test [8], the GI50 is 3.78 µM (inactive).
`CCC12CCCN(Cc3ccccc3)C1c1c(n(C)c3ccccc13)CC2` (centres undefined): the GI50 in test [2] is > 253 µM (inactive); in test [3] it was 170 µM (inactive); in [5], 103 µM (inactive); in test [6], 166 µM (inactive).
Turning to `COc1cc2cnc3c4cc(OCc5ccccc5)ccc4ccc3c2cc1OC`, the GI50 was 11.4 µM (inactive) in test [1]; 18.4 µM (inactive) in test [2]; 27.4 µM (inactive) in test [3]; 19.1 µM (inactive) in test [4]; 80 µM (inactive) in test [5]; 14.1 µM (inactive) in [7]. Besides, the GI50 in [8] is 18.4 µM (inactive).
As for `O=C(O/N=C1/CCC/C1=C\c1ccccc1)c1ccccc1`, the GI50 was 35 µM (inactive) in test [1]; 43.8 µM (inactive) in [2]; > 100 µM (inactive) in [4]; 58.3 µM (inactive) in [5]; > 100 µM (inactive) in test [6]; > 100 µM (inactive) in test [8].
For the compound `c1ccc(NC[Si]23OCCN(CCO2)CCO3)cc1`, the GI50 in [1], in [2], in test [3], in test [4], in [6] and in test [7] was > 100 µM (inactive) in each case. In addition, the GI50 in test [8] was > 100 µM (inactive).
`CC/C=C\C/C=C\C/C=C\CCCCCCCC(=O)OCC(O)CO` (centres undefined): the GI50 was 44.4 µM (inactive) in [1]; > 100 µM (inactive) in test [2]; > 58.7 µM (inactive) in test [4]; > 100 µM (inactive) in test [9]; > 100 µM (inactive) in test [5]; > 100 µM (inactive) in test [6]. Besides, the GI50 in test [8] is 52.2 µM (inactive).
Consider `COc1cc(C2c3cc4c(cc3C(NCC(O)CO)C3COC(=O)[C@H]23)OCO4)cc(OC)c1OC` (some centres undefined), for which the GI50 is 0.0733 µM (active) in test [1]; 0.531 µM (active) in test [2]; 0.927 µM (active) in test [3]; 0.0944 µM (active) in test [4]; 0.372 µM (active) in test [9]; 0.143 µM (active) in [5]. Moreover, the GI50 in test [6] is 0.292 µM (active); in [8] it was > 100 µM (inactive).
Regarding `CCOc1ccccc1NC(=O)C(=O)CC(=O)C1=C(C)Nc2ccccc2S1`, the GI50 in test [2], in test [3], in test [4], in [9], in test [5] and in [6] was > 100 µM (inactive) in each case.
Turning to `C/C(CC(=O)Nc1ccccc1[N+](=O)[O-])=N\NC(N)=O`, the GI50 in [1], in test [2], in [3], in test [4], in [9] and in [5] was > 100 µM (inactive) throughout. In addition, the GI50 in test [7] is > 100 µM (inactive).
Regarding `CC1=CC(=O)NCCN1C`, the GI50 in test [1], in test [2], in [3], in [4], in test [9] and in test [5] was > 100 µM (inactive) each time. For the same compound, the GI50 in test [6] and in test [8] was > 100 µM (inactive) each time.
On to `CCOC(=O)c1c2ccc(/C=C/c3ccccn3)ccc-2c(C(=O)OCC)c1N`, for which the GI50 in test [1], in [2], in [3], in test [5], in [6] and in test [7] was > 100 µM (inactive) each time. The GI50 in test [8] was > 100 µM (inactive).
For `CO[C@H](C(=O)O[C@H]1C(=O)N2CCC3CCC1C32C)c1ccccc1` (some centres undefined), the GI50 in test [1], in test [2], in [3], in test [4], in [9] and in test [5] was > 100 µM (inactive) throughout. In [8], the GI50 is > 100 µM (inactive).
As to `CC(=O)Oc1c2c(c(OC(C)=O)c3c1n(C(C)=O)c1ccccc1n3C(C)=O)n(C(C)=O)c1ccccc1n2C(C)=O`, the GI50 in test [1] is 2.59 µM (inactive); in test [2] it was 3.04 µM (inactive); in test [3], 1.95 µM (inactive); in test [6], 3.24 µM (inactive).
For `COc1ccc(C(=O)O)c(Cc2cccc3ccccc23)c1`, the GI50 in test [1], in test [2], in test [3], in test [5], in test [6] and in test [7] was > 100 µM (inactive) in each case. Further, the GI50 in test [8] was > 100 µM (inactive).
For `CC1/C(=N\O)CC(c2ccccc2)N(C)C1c1ccccc1` (centres undefined), the GI50 in [1], in test [2], in test [3], in test [4], in test [5] and in [6] was > 100 µM (inactive) each time. Also, the GI50 in test [7] was > 100 µM (inactive).
For `NC(=S)N/N=C/C(O[C@@H](/C=N/NC(N)=S)CO)n1cnc2c(N)ncnc21` (some centres undefined), the GI50 was 28.4 µM (inactive) in [1]; 97.1 µM (inactive) in [3]; > 100 µM (inactive) in test [4]; > 100 µM (inactive) in [9]; > 61.1 µM (inactive) in test [5]; > 55.1 µM (inactive) in [6]. Moreover, the GI50 in test [7] is > 100 µM (inactive); in test [8] it was > 48.8 µM (inactive).
As for `NC(=O)c1cn(C2OC(CO)C(O)C2O)c(=O)[nH]c1=O` (centres undefined), the GI50 in [1], in test [2], in test [3], in test [4], in [6] and in test [7] was > 100 µM (inactive) throughout.
As to `CN1CCN=C1c1nnn(-c2ccc([N+](=O)[O-])cc2)c1-c1ccccc1`, the GI50 in test [1] is 89.3 µM (inactive); in test [2] it was 67 µM (inactive); in test [3], > 100 µM (inactive); in test [4], > 100 µM (inactive); in [9], 89.3 µM (inactive); in test [5], > 100 µM (inactive). Besides, the GI50 in test [6] and in test [8] was > 100 µM (inactive) throughout.
Regarding `CC(=O)[O-].[Zn+].c1ccc(/C(=N\Nc2ccccn2)c2ccccn2)cc1`, the GI50 in [1] is 0.01 µM (active); in test [2], 0.0231 µM (active); in [3], 0.394 µM (active); in test [4], 2.38 µM (inactive); in test [5], 0.01 µM (active); in test [6] it was 0.309 µM (active). In addition, in test [8], the GI50 was 0.247 µM (active).

The record behind these values is ChEMBL document CHEMBL1201862, “PubChem BioAssay data set” (2004).
